“Also recorded” adds a separate entry of the source.
What was measured:
conjunctival CD4 T cells = assay: Conjunctival T cell infiltration (CD4 immunohistochemistry), desiccating stress model; format: in vivo, mouse; settings: topical 30 mg/mL, 60 μg per eye, 5 days DS
Method: Female C57BL/6 mice, aged 6 to 8 weeks, were subjected to DS for 5 days (DS5) as described previously (de Paiva et al., 2006b; Niederkorn et al., 2006). Topical bilateral treatment with 1 eye drop per eye (2 μL volume) or subcutaneous injection (4 μL volume), 2 times per day, was initiated on day 1 concurrently with DS and continued through day 4. Treatment with the compound of formula I or dexamethasone phosphate 0.1% was compared to correspondingly treated vehicle controls. Mice were randomized to receive one of the test articles. […] Treatment effects were assessed on corneal staining with Oregon Green Dextran (OGD); expression of inflammatory markers in ocular surface tissues by real time PCR; cell population analysis in draining cervical lymph nodes by FACS analysis; conjunctival T cell infiltration by immunohistochemistry.
For immunohistochemistry, the eyes and adnexa of 5 mice/group (n=5) were excised, embedded in optimal cutting temperature (OCT compound; VWR, Suwanee, Ga.), and flash frozen in liquid nitrogen. […] Positively stained cells were counted in the goblet cell rich area of the conjunctiva, over a length of at least 500 μm in the epithelium for a distance of 500 μm using image-analysis software (NIS Elements Software, version 3.0, BR, Nikon). […]

[1] = test system: cells of draining cervical lymph nodes; assay: Flow cytometry of draining cervical lymph nodes, desiccating stress 1 day; format: in vivo, mouse; settings: 1 day DS; for CD11c+ dendritic cells in draining cervical lymph nodes / CD11c+/MHC II+ dendritic cells in draining cervical lymph nodes: listed as compound of formula I
Method: Female C57BL/6 mice, aged 6 to 8 weeks, were subjected to DS for 5 days (DS5) as described previously (de Paiva et al., 2006b; Niederkorn et al., 2006). Topical bilateral treatment with 1 eye drop per eye (2 μL volume) or subcutaneous injection (4 μL volume), 2 times per day, was initiated on day 1 concurrently with DS and continued through day 4. Treatment with the compound of formula I or dexamethasone phosphate 0.1% was compared to correspondingly treated vehicle controls. Mice were randomized to receive one of the test articles. Control mice were kept in a non-stressed (NS) environment maintained at 50-75% relative humidity without exposure to airflow or scopolamine and were not treated with test or control article. Treatment effects were assessed on corneal staining with Oregon Green Dextran (OGD); expression of inflammatory markers in ocular surface tissues by real time PCR; cell population analysis in draining cervical lymph nodes by FACS analysis; conjunctival T cell infiltration by immunohistochemistry.
Cervical draining lymph nodes (CLN) were surgically excised, placed in a round culture plate with ˜8 mL of complete RPMI media and smashed between two frosted slides.
Single-cell suspensions of CLN from C57BL/6 mice, treated under DS conditions for 1 day, were prepared, centrifuged and sequentially filtered, as previously described (de Paiva et al., 2009a). Subsequently 1.0 mL of ACT solution was added for 30 seconds followed by 2.0 mL of complete RPMI. The cells were once again centrifuged and the supernatant aspirated. Cells were then re-suspended in 2.0 mL of complete RPMI and prepared for counting. Ten μL of Trypan Blue were used for counting and the cells were divided in tubes at 1×10^6 cells/mL. Subsequently, the cells were incubated on ice in 20 μL unconjugated anti-mouse CD16/CD32 (BD Pharmingen, San Diego, Calif.) followed by 80 μL of directly conjugated primary antibody or isotype. Finally the samples were washed with 1 mL PBS/1% FBS, centrifuged and re-suspend in 0.3 mL PBS/1% FBS containing 1:1000 of PI. The samples were stored at 4° C. until the analysis was performed with an A BD LSRII Benchtop cytometer. The data was analysed using BD Diva Software (BD Pharmingen) and FlowJo (TreeStar Inc).
Due to skewed distribution of OGD data, the analysis was done on the log 10 scale to make the data more normally distributed. Log 10 OGD data was averaged across two observers and the left and right eyes. The mixed effects ANOVA model included treatment group as a fixed effect and week as a random effect. 95% and 99% confidence intervals were constructed for the disease (5 day DS vs untreated group kept in separate vivarium) and compound treatment effects (treatment vs vehicle). As these comparisons were all pre-planned (comparing each treatment to its vehicle group), no adjustment was made for multiplicity. Log 10 scale treatment effect estimates and confidence limits were converted back to the original OGD scale, thus representing the estimate for the ratio of group geometric means and their confidence limits. For gene expression analysis, an unpaired T test was performed to compare drug and vehicle treatment. For flow cytometry analysis, a 2-way ANOVA with fixed treatment and random experiment effects was employed to test the treatment differences. The analysis was followed by Dunnett's multiple comparison procedure to compare each of the treatment groups with the vehicle group. T cell density was calculated for each section and averaged across sections for each animal. As the distribution of average cell density data was non-normal, it was analyzed by using non-parametric methods (Kruskal-Wallis procedure, followed by Dunn's multiple comparisons technique).
The draining CLN are an integral part of the immune cycle in DED (Pflugfelder et al., 2008; Schaumburg et al., 2011). […]

[2] = topical treatment, vs vehicle (GW559090 30 mg/mL, 60 μg per eye; Dex 0.1%)

## Cc1ccccc1OCC(=O)N[C@@H](CC(C)C)C(=O)N[C@@H](Cc1ccc(OC(=O)N2CCC(C(N)=O)CC2)cc1)C(=O)O [GW559090, (2S)-3-[4-({[4-(Aminocarbonyl)-1-piperidinyl]carbonyl}oxy)phenyl]-2-[((2S)-4-methyl-2-{[2-(2-methylphenoxy)acetyl]amino}pentanoyl)amino]propanoic acid]
Conjunctival CD4 T cells
  Conjunctival T cell infiltration (cell density): decreases
[1]
  CD4+ and CD8+ T cells in draining lymph nodes: nor did treatment with the compound of formula I or dexamethasone decrease the number of T cells
[1]; systemic (SC BID, 120 μg)
  CD11c+ dendritic cells in draining cervical lymph nodes: Neither systemic treatment with the compound of formula I nor topical treatment with dexamethasone phosphate produced the same effect; also recorded: no significant effect
  CD11c+/MHC II+ dendritic cells in draining cervical lymph nodes: no significant effect
[1]; [2]
  CD11c+ dendritic cells in draining cervical lymph nodes: reduced; also recorded: decreases
  CD11c+/MHC II+ dendritic cells in draining cervical lymph nodes: reduced; also recorded: decreases

From patent US10413535B2, “Pharmaceutical compositions comprising an integrin ALPHA4 antagonist for use in treating ocular inflammatory conditions” (AXEROVISION, INC., priority 2015, dated 2019)
